Measured values taken from article PMC8126080, “Three Small Molecule Entities (MPK18, MPK334 and YAK308) with Activity against Haemonchus contortus In Vitro” (Molecules, 2021).
Entries after “also recorded” stand apart in the source; their conditions may differ. Like-named read-outs stand apart in the source and are kept apart here.

What was measured:
Format in all cases: cell-based
[1] = tested on: exsheathed third-stage larvae (xL3) / fourth-stage larvae (L4) of Haemonchus contortus; experiment: Dose-response assay, inhibition of larval development (xL3 to L4) and phenotype over 7 days; conditions: seven days; for phenotype of larvae after exposure for 7 days / proportion of larvae exhibiting the phenotype at 100 µM: 100 µM; for phenotype of larvae after exposure for 7 days: xL3s/L4s; for IC50: Haemonchus contortus, 168 h
Procedure: (§1) Haemonchus contortus (Haecon-5 strain) was maintained in experimental sheep, in accordance with institutional animal ethics approval (permit no. 1714374; The University of Melbourne). Helminth-free Merino sheep (male; eight months of age) were inoculated orally with 7000 third-stage larvae (L3s) of H. contortus. Faecal samples containing H. contortus eggs were collected every day from 21 days following inoculation. These samples were incubated at 27 °C for one week to produce L3s, which were harvested and sieved through two layers of nylon mesh ([…] pore size; Rowe Scientific, Australia) to remove debris and dead larvae, and then stored at 11 °C for up to 6 months until use. To produce exsheathed third-stage larvae (xL3s) for in vitro assays, L3s were incubated in 0.15% (v/v) sodium hypochlorite for 20 min at 37 °C followed by five washes in 0.9% sterile saline by centrifugation at 600× g (5 min) at room temperature (22–24 °C).
Following the measurement of larval motility at 72 h, plates containing xL3s were incubated for four more days at 38 °C [10% (v/v) CO2 and >90% relative humidity] to test the active compounds (MPK18, MPK334 and YAK308) for their effect on the larval development over 7 days. Subsequently, worms were fixed in 1% iodine, and the rate of larval development was assessed microscopically appraising the presence (L4) or absence (xL3) of mouth and pharynx, and direct comparison with negative (untreated) controls (LB* + 0.5% DMSO). Thirty worms from each well were examined at 50-times magnification, and the number of L4s was expressed as a percentage of the total number. Assays were performed in triplicate, three times, on separate days. To establish IC50 values, compound concentrations were log10-transformed, fitted using a variable slope four-parameter equation with constraining the top value to 100% using a least squares (ordinary) fit model using GraphPad Prism (v. 9.0.2) software.

[2] = tested on: exsheathed third-stage larvae (xL3) of Haemonchus contortus; experiment: Primary phenotypic screen on xL3s at 20 µM (video recording, 72 h); conditions: for proportion of xL3s exhibiting the phenotype in the primary screen: 72 h, visual inspection of video recordings; for phenotype induced in xL3s in the primary screen: 72 h of exposure
Procedure: A library containing 245 compounds (Supplementary Table S1) was curated by the authors (T.K. and B.L.) at the Institute of Pharmaceutical and Medicinal Chemistry, Heinrich-Heine-University Düsseldorf, Germany. Individual compounds were dissolved in 100% high-performance liquid chromatography-grade dimethyl sulfoxide (DMSO; Merck, USA) to achieve stock concentrations of 20 mM. For screening, individual compounds were diluted further to the final concentration of 20 µM in Luria Bertani broth (LB) supplemented with 100 U/mL of penicillin, 100 μg/mL of streptomycin and 0.25 μg/mL of amphotericin B (designated LB*), and tested for activity in vitro against H. contortus.
as §1
Compounds were screened at 20 μM on H. contortus xL3s using an established assay. In brief, diluted test-compounds, negative controls (LB* + 0.5% DMSO) and two positive controls [20 μM of monepantel (Zolvix, Novartis Animal Health, Switzerland) and 20 μM of moxidectin (Cydectin, Virbac, France)] were added to wells of the 96-well microtiter plates (Corning, USA), and xL3s were dispensed at ~300/well to a final volume of 100 µL. Following a 72 h-incubation at 38 °C and 10% (v/v) CO2 at >90% humidity, a video recording (5 s) was taken of each well of the 96-well microtitre plate containing xL3s using a gray–scale camera (Rolera Bolt Scientific CMOS, Teledyne QImaging, Tucson, AZ, USA) and a motorised X–Y axis stage (BioPoint 2, Ludl Electronics Products, Hawthorne, CA, USA) attached to a stereomicroscope (SZ61, Olympus, Shinjuku, Japan). Primary screening was performed in duplicate. A compound was recorded as having activity if it altered worm morphology (phenotype) after 72 h of incubation.

[3] = tested on: exsheathed third-stage larvae (xL3) of Haemonchus contortus; experiment: Dose-response assay, inhibition of larval motility; conditions: for xL3 Motility (72 h) Inhibition (%): concentration not given; for IC50: Haemonchus contortus, 72 h incubation, mean ± SEM, three independent experiments in triplicate
Procedure: as §1
Three compounds (designated MPK18, MPK334 and YAK308) shown to have activity against H. contortus in the primary screen were evaluated for their potency by estimating their half maximal inhibitory concentrations (IC50), calculated in a dose-response assay. In brief, compounds were titrated (18-points, 2-fold serial dilution in 50 μL of LB*, 100 µM down to 0.76 nM), in 96-well microtitre plates and xL3s were dispensed in 50 µL at a density of ~300 per well. All plates were incubated at 38 °C and 10% (v/v) CO2 with >90% humidity. After 72 h of incubation, a video recording (5 s) was taken of each well in the same camera settings as the primary screen (see Section 3.3), and larval motility measured. The motility index (Mi) was calculated from video data using the unique algorithm written in a custom macro, and analysed through the program ImageJ (v.2.0.0, Fiji). Mi data were normalised to a percentage compared with negative control (LB* + 0.5% DMSO). Monepantel and moxidectin were diluted in the same manner, and used as positive control compounds. Assays were performed in triplicate, three times, on separate days. To establish IC50 values, compound concentrations were log10-transformed, fitted using a variable slope four-parameter equation, constraining the maximum value to 100% using a least squares (ordinary) fit model employing GraphPad Prism (v. 9.0.2) software.

[4] = Toxicity on HepG2 cells (crystal violet staining); conditions: HepG2 human hepatoma cells
Procedure: HepG2 human hepatoma cells were seeded into wells of a 96-well microtitre plate in 80 µL of Dulbecco’s modified eagle medium (DMEM), supplemented with 10% foetal bovine serum, 100 U/mL of penicillin, 100 µg/mL of streptomycin and 0.25 µg/mL of amphotericin B (DMEM*) at a density of 1 × 10^5 cells per well. Cells were allowed to adhere for 16 h at 37 °C and 5% (v/v) CO2 at >90% humidity, and incubated with individual, serially-diluted compounds (7-points, 2-fold dilution in DMEM*, from 100 µM to 1.56 µM) in a final volume of 100 µL. Doxorubicin (10 µM) and DMEM* + 0.25% DMSO (vehicle), serving as positive and negative controls, respectively, were added to the individual 96-well plates. Monepantel and moxidectin were also serially diluted—prepared in the same manner as active compounds—and used as ‘negative’ reference controls. After 48 h of incubation, cellular viability was determined by the crystal violet staining assay. The absorbance at 595 nm of treated cells was compared with that of the controls (exposed only to the vehicle, with 100% viability). Compounds and controls were tested in triplicate. To determine the half cytotoxic concentration (CC50) values, compound concentrations were log10-transformed, fitted using a variable slope four-parameter equation with a least squares (ordinary) fit model employing GraphPad Prism (v. 9.0.2) software.

[5] = mean ± SEM, read-out: L4 Development (7 days) IC50 ± SEM

Compound	phenotype of larvae after exposure for 7 days [1]	IC50 ([1]; read-out: concentration at which active on larval development (IC50 not determined)) [µM]	proportion of xL3s exhibiting the phenotype in the primary screen [2]	phenotype induced in xL3s in the primary screen [2]	xL3 Motility (72 h) Inhibition (%) [3] [%]	IC50 [3] [µM]	CC50 at 48 h [4] [µM]	proportion of larvae exhibiting the phenotype at 100 µM [1] [%]	IC50 [1, 5] [µM]	phenotype induced in xL3s in the primary screen ([2]; listed as YAK 308)
Cc1ccc(/C=C/C(=O)NOCc2ccccc2)cc1 [MPK18]	not observed; also recorded: Wild type	> 25	~ 50%	coiled	30.0	45.2 ± 4.6	> 100	–	–	–
O=C(/C=C/c1ccccc1)c1ccc(Br)cc1O [MPK334]	curved	–	~ 50%	coiled	74.2	17.1 ± 4.2	> 100	100	12.3 ± 2.3	–
C[C@](C#N)(COc1cc(C#N)ccc1C(F)(F)F)NC(=O)c1ccc(SC(F)(F)F)cc1 [Monepantel, monepantel, reference compound]	–	–	–	Coiled	90.3	0.6 ± 0.1	> 100	–	0.4 ± 0.05	–
CO/N=C1\C[C@]2(C[C@@H]3C[C@@H](C/C=C(\C)C[C@@H](C)/C=C/C=C4\CO[C@@H]5[C@H](O)C(C)=C[C@@H](C(=O)O3)[C@]45O)O2)O[C@H](/C(C)=C/C(C)C)[C@H]1C [Moxidectin, moxidectin, reference compound]	–	–	–	Relaxed	85.1	0.8 ± 0.2	> 100	–	12.4 ± 0.1	–
COc1cc(OC)cc(C(=O)Nc2nc(-c3ccccc3)cs2)c1 [YAK308]	evisceration and evi	–	~ 90%	curved	34.6	52.7 ± 6.7	> 100	22	6.5 ± 1.6	Curved
